{
  "source": "patent US7238469B2",
  "about": "“Carbon monoxide improves outcomes in tissue and organ transplants and suppresses apoptosis” (priority 2001, dated 2007)",
  "key": {"2F–2B ECs": {"tested_on": "2F–2B ECs", "format": "cell-based, murine", "method": "The murine 2F–2B endothelial cell line (ATCC) was transiently transfected as described elsewhere (Soares et al., Nature Med. 4:1073, 1998; Brouard et al, J. Exp. Med. 192:1015, 2000). All experiments were conducted 24–48 h after transfection. é-galactosidase-transfected cells were detected as described elsewhere (Soares et al., Nature Med. 4:1073, 1998; Brouard et al., J. Exp. Med. 192:1015, 2000). Percentage of viable cells was assessed by evaluating the number of é-galactosidase-expressing cells that retained normal morphology as described elsewhere (Soares et al., Nature Med. 4:1073, 1998; Brouard et al., J. Exp. Med. 192:1015, 2000). The number of random fields counted was determined to have a minimum of 200 viable transfected cells per control well. The percentage of viable cells was normalized for each DNA preparation to the number of transfected cells counted in the absence of the apoptosis-inducing agent (100% viability). All experiments were performed at least three times in duplicate. Actinomycin D (Act. D; Sigma) was dissolved in PBS and added to the culture medium (10 îg/ml) 24 h after transfection. SnPPIX (Porphyrin Products) was dissolved (10 îM) in 100 mM NaOH and conserved at −20° C. until used. SNPPIX was added to the culture medium (50 îM) 6 h after transfection. Human recombinant TNF-α (R&D Systems, Minneapolis, Minn.) was dissolved in PBS, 1% BSA, and added to the culture medium (10–100 ng/ml) 24 h after transfection.\nCells were exposed to compressed air or varying concentration of CO (250 and 10,000 ppm), as described elsewhere (Otterbein et al., Nature Med. 6:422, 2000; and Brouard et al., J. Exp. Med. 192:1015, 2000).\nBAECs and 2F–2B ECs were transiently transfected. All experiments were carried out 24–48 h after transfection. The percentage of viable cells was assessed by evaluating the number of β-galactosidase-expressing cells that retained normal morphology. The number of random fields counted was determined to have a minimum of 200 viable transfected cells per control well. The percentage of viable cells was normalized for each DNA preparation to the number of transfected cells counted in the absence of the apoptosis-inducing agent (100% viability). All experiments were performed at least three times in duplicate.\nActinomycin D (Act.D; Sigma-Aldrich) was dissolved in PBS and added to the culture medium 24 h after transfection. The Act.D concentration used corresponded to the optimal concentration necessary to sensitize ECs to TNF-α mediated apoptosis, e.g., 10 μg/ml for 2F–2B ECs and 0.1 μg/ml for BAECs. When indicated, EC apoptosis was induced by etoposide (200 μM, 8 h; Calbiochem-Novabiochem) or by serum deprivation (0.1% FCS for 24 h). The iron chelator deferoxamine mesylate (DFO; Sigma-Aldrich) was dissolved in water and added to culture medium (1–100 μM) 1 h before the induction of apoptosis. Hemoglobin (Hb; Sigma-Aldrich) was dissolved (1 mM) in PBS, 10 mM Na2S2O4, dialyzed against PBS (2 h, 4° C., 1:800 dilution), and added to the culture medium (1–100 μM) 6 h after transfection. The guanylcyclase inhibitor 1H(1,2,4)oxadiazolo(4,3)quinoxalin-1 (ODQ; Calbiochem-Novabiochem) was dissolved in DMSO (Sigma-Aldrich) and added to the culture medium (10–100 μM) 6 h after transfection. Iron protoporphyrin ([FePP]/heme), cobalt protoporphyrin (CoPPIX), and tin protoporphyrin (SnPPIX; all from Porphyrin Products, Inc.) were dissolved (10 mM) in 100 mM NaOH and held at −20° C. until use. Metalloporphyrins were added to the culture medium (50 μM) 6 h after transfection. The cGMP analogue 8-bromo-cGMP sodium salt (8-Br-cGMP; Sigma-Aldrich) was dissolved in water and added to the culture medium (10–100 µM) 30 min before the induction of apoptosis. Human recombinant TNF- (R&D Systems) was dissolved in PBS and 1% BSA, and added to the culture medium (10–100 ng/ml) 24 h after transfection.\nCells were exposed to compressed air from a compressed air tank or varying concentrations of CO (250 and 10,000 ppm)."}, "HO-1": {"tested_on": "HO-1", "assay": "Western blot of HO-1 expression in cultured endothelial cells", "format": "cell-based, mouse", "settings": "data not shown", "method": "Endothelial cells were washed in PBS (pH 7.2), harvested by scraping, and lysed in Laemmli buffer. Electrophoresis was conducted under denaturing conditions with 10% polyacrylamide gels. Proteins were transferred onto a polyvinyldifluoridine membrane (immobilon P; Millipore, Bedford, Mass.) by electroblotting and detected with rabbit polyclonal Abs directed against human HO-1 or HO-2 (StressGen, Victoria, Canada) or é-tubulin (Boehringer Mannheim, Mannheim, Germany). Proteins were visualized by using HRP-conjugated donkey anti-rabbit IgG or goat anti-mouse IgG (Pierce) and the ECL assay (Amersham Life Science, Arlington Heights, Ill.) according to manufacturer's instructions."}, "islet cell grafts": {"tested_on": "islet cell grafts", "assay": "Islet graft survival after induction of HO-1 by CoPP in donors and recipients", "format": "in vivo, mouse", "settings": "350–400 islets; for Rejection day: individual recipients", "method": "Whether induction of HO-1 in donors and recipients would protect islet cell grafts was investigated. The following procedures were utilized to generate the data illustrated in Table 1, below. A mouse model was utilized for the experiments. Donors of islet cells were treated with cobalt protoporphyrin (CoPP) (20 mg/kg) once per day before islet cell isolation. Recipients of islet cell grafts were treated with CoPP (20 mg/kg) once per day on days 1, 3, 5, 7 or with CoPP (10 mg/kg) once per day on days 1, 3, 5, 7, 9, 11, 13, 15, and 17. Treatment with CoPP induces expression of heme oxygenase-1 (HO-1).\nListed under “rejection day” are the days to which islets survived. For instance, “>51×2”, means that islets in 2 recipients were still surviving after 51 days. The mean date of rejection is shown in the fourth column."}, "[1]": {"tested_on": "rat platelets overlaid on mouse 2F–2B endothelial cells", "assay": "Platelet aggregation assay, platelets overlaid on pretreated endothelial cells", "format": "cell-based", "settings": "endothelial cells pretreated with protoporphyrin 50 μM; ADP 2 μM", "method": "Mouse 2F–2B endothelial cells were cultured on 0.2% gelatin (Sigma) coated six-well plates in 88% DMEM (Life Technologies), 10% FCS (FCS), 100 U/ml penicillin, and 100 îg/ml streptomycin (Life Technologies). Confluent endothelial cells either were left untreated or were treated with the HO-inducing agent CoPPIX (50 îM; 18 h), the HO inhibitor SnPPIX (50 îM, 18 h), or both CoPPIX (50 îM, 15 h) and SnPPIX (50 îM, 3 h). Platelet-rich plasma was obtained by centrifugation (290-g, 12 min, 19° C.) of normal rat […] in 3.8% sodium citrate. Rat platelets (3–10^8 cells ml) were resuspended in HT buffer (8.9 mM NaHCO3, 0.8 mM KH2PO, 5.6 mM dextrose, 2.8 mM KCl solution, 0.8 mM MgCl2, 129 mM NaCl, 10 mM HEPES). Platelets were overlaid (5 min; 37° C.) on mouse endothelial cells, and platelet aggregation assays were conducted as described before (Kaczmarek et al, J. Biol. Chem. 271:33116, 1996) by using an aggregometer (Chrono-Log, Harestown, Pa.) and ADP (0.5–4 μM) as an agonist."}, "βTC3 cells": {"tested_on": "βTC3 cells", "assay": "TNF-α mediated apoptosis of β-gal transfected βTC3 cells (percentage of viable cells)", "format": "cell-based, murine", "settings": "for inhibition of TNF-α mediated apoptosis: TNF-α 24 hours, inhibitor added two hours before TNF-α (Z-DEVD-FMK 10 μM, IETD-CHO 1 μM)", "method": "The murine insulinoma cell line βTC3 (DSMZ, Braunschweig, Germany) was cultured in Dulbecco's Modified Eagle's Medium (DMEM) (Life Technologies, Grand Island, N.Y., USA) supplemented with 2 mM L-glutamine, 100 U/ml penicillin G, 100 U/ml streptomycin and 10% Fetal Calf Serum (FCS) (Life Technologies) and incubated in humidified 5% CO2/95% air at 37° C. This murine β-cell line, derived from transgenic mice carrying a hybrid insulin-promoter simian virus 40 tumor antigen, is known to maintain the features of differentiated β-cells for about 50 passages in culture. […] Compared to other frequently used transformed β-cell lines such as RIN-m5F and HIT, levels of secreted insulin are closer to normal β-cells in the βTC3 cell line. Thus, these cells are useful for studying β-cell regulation and gene expression (D'Ambra et al., Endocrinology 726:2815–22, 1990).\nβTC3 were seeded at 3×10^5 cells in 16 mm wells and transfected 15 to 20 hours later using Lipofectamine plus™ reagents (Life Technologies) according to the manufacturer's instructions. Total DNA was maintained constant using empty pcDNA3 vector. The percentage of viable cells was assessed by normalizing the percentage of viable cells of each DNA preparation to the number of control-transfected cells without the apoptotic stimulus (100% viability) (Soares et al., Nature Med. 4:1073–1077, 1998; Sato et al., J. Immunol. 166:4185–4194, 2001).\nMurine recombinant TNF-α (R&D Systems) was dissolved in PBS with 1% bovine serum albumin and added to the culture medium (17.5 ng/ml=500 U) 24 hours after transfection. The caspase-3 inhibitor Z-DEVD-FMK and the caspase-8 inhibitor IETD-CHO (Calbiochem, San Diego, Calif.) were dissolved in dimethyl sulphoxide (DMSO, Sigma) and added to the culture medium (10 μM and 1 μM respectively) two hours before treatment with TNF-α. Tin protoporphyrin (SnPPIX) (Porphyrin Products, Logan, Utah) was dissolved (10 mM) in 100 mM NaOH and added 6 hours after transfection to the culture medium (50 μM). The guanylyl cyclase inhibitor 1H[1,2,4]oxadiazolo[4,3-α]quinoxalin-1 (ODQ; Calbiochem) was dissolved in DMSO and added to the culture medium (100 μM) 6 hours after transfection. The cGMP analogue 8-bromoguanosine-3′-5′-cyclic-monophosphate (8-Br-cGMP) (Sigma) was dissolved in water and added to the culture medium (10 μM) 30 minutes before induction of apoptosis. The protein kinase G inhibitor KT5823 (Calbiochem) was dissolved in DMSO and added to the culture medium (1.6 μM) 6 hours after transfection.\nCells and islets were exposed to 1% carbon monoxide in compressed air balanced with 5% CO2, as described elsewhere (see, e.g., Otterbein et al., Nature Med. 6:422–428, 2000). Islets were incubated in RPMI medium pre-saturated with carbon monoxide (4° C. overnight, 1% CO, 5% CO2) for two hours at 37° C. while treatment with 1% CO, 5% CO2 was continued."}},
  "note": "Several values for one entry are separate records, joined by “and”; a condition that tells them apart may be missing. Equal values may be shown once. Where a name gives a salt, the structure may show the parent alone. Residues, ends and D or L forms follow the SMILES beside them.",
  "data": [
    {"smiles": "C=CC1=C(C)c2cc3[n-]c(cc4nc(cc5[n-]c(cc1n2)c(C)c5CCC(=O)[O-])C(CCC(=O)[O-])=C4C)c(C)c3C=C.[Co+2].[H+].[H+]", "note": "[CoPP, cobalt protoporphyrin]", "values": [
      {"measurement": "effect of protoporphyrin on the antiapoptotic effect of HO-1", "setting": "2F–2B ECs; HO-1 transfected ECs, protoporphyrin 50 μM", "result": "did not suppress the antiapoptotic effect of HO-1 or that of bcl-2"},
      {"measurement": "expression of HO-1 in cultured endothelial cells", "setting": "HO-1", "result": "up-regulated the expression of HO-1"},
      {"measurement": "Rejection day Mean ± SD", "setting": "islet cell grafts; CoPP 10 mg/kg × 10", "result": "40.5 ± 12.12", "unit": "days"},
      {"measurement": "Rejection/Total", "setting": "islet cell grafts; CoPP 10 mg/kg × 10", "result": "2/4"},
      {"measurement": "Rejection day", "setting": "islet cell grafts; CoPP 10 mg/kg × 10", "result": "> 51", "unit": "days"},
      {"measurement": "Rejection day Mean ± SD", "setting": "islet cell grafts; CoPP 20 mg/kg × 5", "result": "44.85 ± 17.81", "unit": "days"},
      {"measurement": "Rejection/Total", "setting": "islet cell grafts; CoPP 20 mg/kg × 5", "result": "4/7"},
      {"measurement": "Rejection day", "setting": "islet cell grafts; CoPP 20 mg/kg × 5", "result": ">58 × 2, day and >67 × 1 day"},
      {"measurement": "platelet aggregation on stimulation by ADP", "setting": "[1]", "result": "platelet aggregation was significantly inhibited"}
    ]},
    {"smiles": "CC(=O)N(O)CCCCCNC(=O)CCC(=O)N(O)CCCCCNC(=O)CCC(=O)N(O)CCCCCN", "note": "[DFO, deferoxamine mesylate]", "values": [
      {"measurement": "effect on EC apoptosis when HO-1 activity was inhibited by SnPPIX or the action of CO suppressed by Hb", "setting": "2F–2B ECs; DFO", "result": "still able to prevent EC apoptosis"},
      {"measurement": "effect on EC apoptosis under inhibition of HO activity by SnPPIX", "setting": "2F–2B ECs; DFO 100 μM alone", "result": "suppressed EC apoptosis, but to a lesser extent than HO-1"},
      {"measurement": "effect on EC apoptosis induced by TNF-α plus Act.D", "setting": "2F–2B ECs; DFO 1–100 μM", "result": "suppressed"}
    ]},
    {"smiles": "CC[C@H](C)[C@H](NC(C)=O)C(=O)N[C@@H](CCC(=O)O)C(=O)N[C@H](C(=O)N[C@H](C=O)CC(=O)O)[C@@H](C)O", "note": "[IETD-CHO] (Ac-IETD-aldehyde)", "values": [
      {"measurement": "inhibition of TNF-α mediated apoptosis", "setting": "βTC3 cells", "result": 96, "unit": "%"}
    ]},
    {"smiles": "COC(=O)[C@@]1(OC)C[C@H]2O[C@]1(C)n1c3ccccc3c3c4c(c5c6ccccc6n2c5c31)C(=O)N(C)C4", "note": "[KT5823]", "values": [
      {"measurement": "effect on the anti-apoptotic effect of exogenous CO", "setting": "βTC3 cells; TNF-α, 1% CO, ODQ 100 μM, KT5823 1.6 μM", "result": "suppressed the anti-apoptotic effect of exogenous carbon monoxide"}
    ]},
    {"smiles": "C[S+]([O-])c1ccc(-c2nc(-c3ccncc3)c(-c3ccc(F)cc3)[nH]2)cc1", "note": "(stereo not shown) [SB203580]", "values": [
      {"measurement": "effect on the antiapoptotic action of HO-1", "setting": "2F–2B ECs; SB203580 10–20 μM, dose dependent", "result": "antiapoptotic action of HO-1 is suppressed"}
    ]},
    {"smiles": "COC(=O)CC[C@H](NC(=O)[C@H](CC(=O)OC)NC(=O)OCc1ccccc1)C(=O)N[C@H](C(=O)N[C@@H](CC(=O)OC)C(=O)CF)C(C)C", "note": "[Z-DEVD-FMK]", "values": [
      {"measurement": "inhibition of TNF-α mediated apoptosis", "setting": "βTC3 cells", "result": 53, "unit": "%"}
    ]}
  ]
}
